Measurements from patent publication US20220071996A1, “ORAL FORMULATIONS OF BRANAPLAM” (NOVARTIS AG, priority 2018, published 2022).
Converted amounts (≈) assume the structure as drawn. Where two headings read alike, the source gives them in different places.

Test: solubility of branaplam in selected excipients
Format: physicochemical
Settings: pH 4, aqueous with cosolvent or surfactant or cyclodextrin, thermodynamic from solid
Description: (§1) Solubility of branaplam was evaluated in excipients, other than cyclodextrin, such as Cremophor RH40, Tween 80, PG, PEG300, and glycerol. These excipients and concentrations were selected as they are suitable for paediatric formulations. None of the tested excipients was able to support development of a formulation comprising branaplam at a concentration high enough (i.e. about 2 mg/ml or higher) to keep the dose volume in a suitable range (Table 6).
as §1, with “5a).” for “6).”
Solubility of branaplam was measured as follows: stock solutions for the excipients at target concentrations were prepared using milli-Q water and adjusted using pH 4.0 buffer. […] Suspensions were stirred for 24 hours (using a magnetic stirrer) ensuring sufficient swirling and monitoring the temperature. The suspensions were filtered through 0.45 μm nominal pore size filter (e.g. using a PES syringe), and the concentration of branaplam in the filtrate was measured using HPLC (high performance liquid chromatography). The measurements were performed in duplicate and average of the values are reported.

For CC1(C)CC(Oc2ccc(-c3ccc(-c4cn[nH]c4)cc3O)nn2)CC(C)(C)N1 [branaplam, 5-(1H-pyrazol-4-yl)-2-(6-((2,2,6,6-tetramethylpiperidin-4-yl)oxy)pyridazin-3-yl)phenol], which solubility at 24 h (2 °C, in Cremophor RH 40 15.0% (w/v), pH 4.0 buffer, 2-8° C., read-out: Solubility (mg/mL) 2-8° C.) is on record?
The solubility at 24 h was 1.19 mg/mL (≈ 3020 µM).

And the solubility at 24 h (25 °C, in Cremophor RH 40 15.0% (w/v), pH 4.0 buffer, RT, read-out: Solubility (mg/mL) RT)?
Its solubility at 24 h is 1.32 mg/mL (≈ 3350 µM).

And the solubility at 24 h (Cremophor RH 40 1.0% (w/v) aqueous solution in pH 4.0 buffer, 2 °C, in Cremophor RH 40 1.0% (w/v), pH 4.0 buffer, 2-8° C., read-out: Solubility (mg/mL) 2-8° C.)?
The solubility at 24 h was 0.17 mg/mL (≈ 432 µM).

And the solubility at 24 h (Cremophor RH 40 1.0% (w/v) aqueous solution in pH 4.0 buffer, 25 °C, in Cremophor RH 40 1.0% (w/v), pH 4.0 buffer, RT, read-out: Solubility (mg/mL) RT)?
The solubility at 24 h was 0.28 mg/mL (≈ 712 µM).

What about the solubility at 24 h (Cremophor RH 40 3.5% (w/v) aqueous solution in pH 4.0 buffer, 2 °C, in Cremophor RH 40 3.5% (w/v), pH 4.0 buffer, 2-8° C., read-out: Solubility (mg/mL) 2-8° C.) of the same molecule?
The solubility at 24 h was 0.44 mg/mL (≈ 1120 µM).

And the solubility at 24 h (Cremophor RH 40 3.5% (w/v) aqueous solution in pH 4.0 buffer, 25 °C, in Cremophor RH 40 3.5% (w/v), pH 4.0 buffer, RT, read-out: Solubility (mg/mL) RT)?
Its solubility at 24 h is 0.53 mg/mL (≈ 1350 µM).

What about the solubility at 24 h (Cremophor RH 40 7.0% (w/v) aqueous solution in pH 4.0 buffer, 2 °C, in Cremophor RH 40 7.0% (w/v), pH 4.0 buffer, 2-8° C., read-out: Solubility (mg/mL) 2-8° C.) of the same molecule?
The solubility at 24 h was 0.71 mg/mL (≈ 1800 µM).

What about the solubility at 24 h (Cremophor RH 40 7.0% (w/v) aqueous solution in pH 4.0 buffer, 25 °C, in Cremophor RH 40 7.0% (w/v), pH 4.0 buffer, RT, read-out: Solubility (mg/mL) RT) of the same molecule?
Its solubility at 24 h is 0.84 mg/mL (≈ 2130 µM).

What about the solubility at 24 h (aqueous excipient solution, 2 °C, in Glycerol 5.0% (w/w), 2-8° C., read-out: Solubility (mg/mL) 2-8° C.) of the same molecule?
Its solubility at 24 h is 0.2 mg/mL (≈ 508 µM).

And the solubility at 24 h (aqueous excipient solution, 2 °C, in Glycerol 10.0% (w/w), 2-8° C., read-out: Solubility (mg/mL) 2-8° C.)?
The solubility at 24 h was 0.19 mg/mL (≈ 483 µM).

What about the solubility at 24 h (aqueous excipient solution, 2 °C, in PEG 300 5.0% (w/w), 2-8° C., read-out: Solubility (mg/mL) 2-8° C.) of the same molecule?
Its solubility at 24 h is 0.27 mg/mL (≈ 686 µM).

What about the solubility at 24 h (aqueous excipient solution, 2 °C, in PEG 300 10.0% (w/w), 2-8° C., read-out: Solubility (mg/mL) 2-8° C.) of the same molecule?
The solubility at 24 h was 0.34 mg/mL (≈ 864 µM).

What about the solubility at 24 h (aqueous excipient solution, 2 °C, in PEG 300 25.0% (w/w), 2-8° C., read-out: Solubility (mg/mL) 2-8° C.) of the same molecule?
The solubility at 24 h was 0.87 mg/mL (≈ 2210 µM).

What about the solubility at 24 h (aqueous excipient solution, 2 °C, in PEG 400 5.0% (w/w), 2-8° C., read-out: Solubility (mg/mL) 2-8° C.) of the same molecule?
The solubility at 24 h was 0.21 mg/mL (≈ 534 µM).

What about the solubility at 24 h (aqueous excipient solution, 2 °C, in PEG 400 10.0% (w/w), 2-8° C., read-out: Solubility (mg/mL) 2-8° C.) of the same molecule?
The solubility at 24 h was 0.45 mg/mL (≈ 1140 µM).

And the solubility at 24 h (aqueous excipient solution, 2 °C, in PEG 400 25.0% (w/w), 2-8° C., read-out: Solubility (mg/mL) 2-8° C.)?
Its solubility at 24 h is 0.93 mg/mL (≈ 2360 µM).

What about the solubility at 24 h (aqueous excipient solution, 2 °C, in Propylene glycol 5.0% (w/w), 2-8° C., read-out: Solubility (mg/mL) 2-8° C.) of the same molecule?
The solubility at 24 h was 0.16 mg/mL (≈ 407 µM).

What about the solubility at 24 h (aqueous excipient solution, 2 °C, in Propylene glycol 10.0% (w/w), 2-8° C., read-out: Solubility (mg/mL) 2-8° C.) of the same molecule?
The solubility at 24 h was 0.18 mg/mL (≈ 457 µM).

What about the solubility at 24 h (aqueous excipient solution, 2 °C, in Propylene glycol 25.0% (w/w), 2-8° C., read-out: Solubility (mg/mL) 2-8° C.) of the same molecule?
The solubility at 24 h was 0.42 mg/mL (≈ 1070 µM).

What about the solubility at 24 h (aqueous excipient solution, 2 °C, in Tween 80 0.5% (w/w), 2-8° C., read-out: Solubility (mg/mL) 2-8° C.) of the same molecule?
The solubility at 24 h was 0.16 mg/mL (≈ 407 µM).

And the solubility at 24 h (aqueous excipient solution, 2 °C, in Tween 80 0.8% (w/w), 2-8° C., read-out: Solubility (mg/mL) 2-8° C.)?
The solubility at 24 h was 0.22 mg/mL (≈ 559 µM).

What about the solubility at 24 h (aqueous excipient solution, 2 °C, in Tween 80 1.5% (w/w), 2-8° C., read-out: Solubility (mg/mL) 2-8° C.) of the same molecule?
Its solubility at 24 h is 0.29 mg/mL (≈ 737 µM).

What about the solubility at 24 h (aqueous excipient solution, 2 °C, in Tween 80 5.0% (w/w), 2-8° C., read-out: Solubility (mg/mL) 2-8° C.) of the same molecule?
The solubility at 24 h was 0.73 mg/mL (≈ 1860 µM).

What about the solubility at 24 h (aqueous excipient solution, 25 °C, in Glycerol 5.0% (w/w), RT, read-out: Solubility (mg/mL) RT) of the same molecule?
Its solubility at 24 h is 0.18 mg/mL (≈ 457 µM).

What about the solubility at 24 h (aqueous excipient solution, 25 °C, in Glycerol 10.0% (w/w), RT, read-out: Solubility (mg/mL) RT) of the same molecule?
The solubility at 24 h was 0.22 mg/mL (≈ 559 µM).

And the solubility at 24 h (aqueous excipient solution, 25 °C, in PEG 300 5.0% (w/w), RT, read-out: Solubility (mg/mL) RT)?
The solubility at 24 h was 0.39 mg/mL (≈ 991 µM).

What about the solubility at 24 h (aqueous excipient solution, 25 °C, in PEG 300 10.0% (w/w), RT, read-out: Solubility (mg/mL) RT) of the same molecule?
Its solubility at 24 h is 0.64 mg/mL (≈ 1630 µM).

And the solubility at 24 h (aqueous excipient solution, 25 °C, in PEG 300 25.0% (w/w), RT, read-out: Solubility (mg/mL) RT)?
The solubility at 24 h was 1.61 mg/mL (≈ 4090 µM).

And the solubility at 24 h (aqueous excipient solution, 25 °C, in PEG 400 5.0% (w/w), RT, read-out: Solubility (mg/mL) RT)?
Its solubility at 24 h is 0.39 mg/mL (≈ 991 µM).

What about the solubility at 24 h (aqueous excipient solution, 25 °C, in PEG 400 10.0% (w/w), RT, read-out: Solubility (mg/mL) RT) of the same molecule?
The solubility at 24 h was 0.63 mg/mL (≈ 1600 µM).

And the solubility at 24 h (aqueous excipient solution, 25 °C, in PEG 400 25.0% (w/w), RT, read-out: Solubility (mg/mL) RT)?
Its solubility at 24 h is 1.47 mg/mL (≈ 3740 µM).

What about the solubility at 24 h (aqueous excipient solution, 25 °C, in Propylene glycol 5.0% (w/w), RT, read-out: Solubility (mg/mL) RT) of the same molecule?
Its solubility at 24 h is 0.27 mg/mL (≈ 686 µM).

And the solubility at 24 h (aqueous excipient solution, 25 °C, in Propylene glycol 10.0% (w/w), RT, read-out: Solubility (mg/mL) RT)?
The solubility at 24 h was 0.37 mg/mL (≈ 940 µM).

And the solubility at 24 h (aqueous excipient solution, 25 °C, in Propylene glycol 25.0% (w/w), RT, read-out: Solubility (mg/mL) RT)?
The solubility at 24 h was 0.94 mg/mL (≈ 2390 µM).

What about the solubility at 24 h (aqueous excipient solution, 25 °C, in Tween 80 0.5% (w/w), RT, read-out: Solubility (mg/mL) RT) of the same molecule?
Its solubility at 24 h is 0.25 mg/mL (≈ 635 µM).

What about the solubility at 24 h (aqueous excipient solution, 25 °C, in Tween 80 0.8% (w/w), RT, read-out: Solubility (mg/mL) RT) of the same molecule?
The solubility at 24 h was 0.28 mg/mL (≈ 712 µM).

And the solubility at 24 h (aqueous excipient solution, 25 °C, in Tween 80 1.5% (w/w), RT, read-out: Solubility (mg/mL) RT)?
Its solubility at 24 h is 0.41 mg/mL (≈ 1040 µM).

What about the solubility at 24 h (aqueous excipient solution, 25 °C, in Tween 80 5.0% (w/w), RT, read-out: Solubility (mg/mL) RT) of the same molecule?
The solubility at 24 h was 0.89 mg/mL (≈ 2260 µM).

What about the solubility at 24 h (aqueous excipient stock solution, 2 °C, in Cremophor RH 40 1.0% (w/w), 2-8° C., read-out: Solubility (mg/mL) 2-8° C.) of the same molecule?
The solubility at 24 h was 0.17 mg/mL (≈ 432 µM).

What about the solubility at 24 h (aqueous excipient stock solution, 2 °C, in Cremophor RH 40 3.5% (w/w), 2-8° C., read-out: Solubility (mg/mL) 2-8° C.) of the same molecule?
Its solubility at 24 h is 0.44 mg/mL (≈ 1120 µM).
